The test system of data set [1] is NFκB. Put plainly: NFκB-driven luciferase reporter assay in LPS-challenged RAW 264.7 macrophages. It counts as cell-based. To be noted: Mus musculus, RAW264.7; RAW 264.7, LPS 200 ng/mL; linked bioactive; read-out: IC50 in an NFkB assay. The method, then: RAW 264.7 cells transfected with an NFκB-driven luciferase reporter were plated in 96 well plates. Cells were treated with Vehicle (0.1% ethanol) or test compounds for 2 hours. As a positive control for inhibition of NFκB signaling, 6 wells were treated with […]. Cells were then challenged with 200 ng/mL LPS for 3 hours in the presence of test compounds. A subset of wells treated with vehicle remained unstimulated with LPS to determine the floor signal of the assay. NFκB driven luciferase activity was developed by addition of BriteLite luciferase kit (PERKIN ELMER®) and measured using a Victor V plate reader. NFκB activity (luciferase activity) for each treatment was normalized to Vehicle wells treated with LPS (% NFκB Response).
In general terms: In a reporter assay the amount or activity of a reporter protein is the signal.

Data set [2] has as its target T1, human recombinant MAG-lipase (Homo sapiens, UniProt Q99685).
T1 construct: purchased Cayman 705192
T1 sequence (Q99685 1-303): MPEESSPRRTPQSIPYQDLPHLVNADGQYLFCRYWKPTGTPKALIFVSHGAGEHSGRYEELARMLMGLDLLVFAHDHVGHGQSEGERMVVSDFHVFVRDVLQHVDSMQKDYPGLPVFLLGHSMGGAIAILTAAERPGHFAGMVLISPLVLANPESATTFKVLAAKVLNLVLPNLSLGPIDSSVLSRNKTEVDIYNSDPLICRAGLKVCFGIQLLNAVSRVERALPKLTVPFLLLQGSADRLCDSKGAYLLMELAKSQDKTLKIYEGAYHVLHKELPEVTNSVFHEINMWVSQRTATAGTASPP
Put plainly: Hydrolysis with human recombinant monoacylglycerol lipase, with and without MAGL inhibitor. Format: biochemical. To be noted: FIG. 8; 5 μM final concentration, 37° C., 0-30 min, no inhibitor. The method, then:
Hydrolysis experiment involving Monoacylglycerol lipase (MAGL) with and without a MAGL inhibitor. A commercially available Monoacylglycerol (MAGL) kit from Cayman (Cat #705192) was used for the hydrolysis experiment. The hydrolysis was carried out in Eppendorf tubes by adding together 300 μL of a 10 mM Tris-HCl buffer (pH 7.2, 1 mM EDTA), 20 μL of DMSO, and 20 μL of the human recombinant MAG-lipase. […] The Eppendorf tubes were gently inverted to mix the components and then placed in a 37° C. incubator. A 25 μl, sample was withdrawn at each of the following time points: 0, 5, 10, 15, and 30 min. […] In a separate experiment, the hydrolysis was then repeated in the presence of a MAGL inhibitor (compound JZL184, supplied with the commercially available MAGL kit). Eppendorf tubes were charged with 300 μL of a 10 mM Tris-HCl buffer (pH 7.2, 1 mM EDTA), 20 μL of a […] solution of JZL184 in DMSO in order to make a 5 μM final concentration, and 20 μL of the human recombinant MAG-lipase. […] The Eppendorf tubes were gently inverted to mix the components and then placed in a 37° C. incubator.

In data set [3] the target is T2, FAAH-1 (Homo sapiens, UniProt O00519).
T2 construct: expressed in transfected cells; host or cells: COS-7
T2 sequence (O00519 1-579): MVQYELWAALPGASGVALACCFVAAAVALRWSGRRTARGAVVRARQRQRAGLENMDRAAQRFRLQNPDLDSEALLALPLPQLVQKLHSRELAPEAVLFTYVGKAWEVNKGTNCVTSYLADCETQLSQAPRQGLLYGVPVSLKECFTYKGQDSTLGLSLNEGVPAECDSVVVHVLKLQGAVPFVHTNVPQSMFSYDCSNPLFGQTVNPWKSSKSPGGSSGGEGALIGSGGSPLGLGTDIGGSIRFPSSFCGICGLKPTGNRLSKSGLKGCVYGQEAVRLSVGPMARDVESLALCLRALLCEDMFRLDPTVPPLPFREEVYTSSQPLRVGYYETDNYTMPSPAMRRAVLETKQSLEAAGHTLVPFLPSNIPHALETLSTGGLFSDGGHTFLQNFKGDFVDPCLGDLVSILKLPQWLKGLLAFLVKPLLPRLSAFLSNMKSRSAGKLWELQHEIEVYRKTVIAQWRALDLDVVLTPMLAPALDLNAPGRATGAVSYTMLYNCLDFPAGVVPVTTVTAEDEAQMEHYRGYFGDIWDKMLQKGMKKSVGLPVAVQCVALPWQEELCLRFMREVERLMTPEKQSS
Briefly: Hydrolysis in homogenate of COS-7 cells overexpressed with FAAH-1. It counts as biochemical. The following applies: 5 μM inhibitor. The method, then:
(§1) Hydrolysis experiments using COS-7 cells overexpressed with either FAAH-1 or FAAH-2. […] The next day, cells were transfected, in duplicate, with 10 μg Vector control, flag-FAAH-1 or flag-FAAH-2 plasmids using Lipofectamine 2000 (Invitrogen) according to the manufacturer's protocol. 24 hours post transfection, cells were washed 1× in cold PBS, aspirated dry, and then scraped off the plate in the presence of 0.6 mL reaction buffer (50 mM HEPES, pH 9.0; 1 mM EDTA). Cells were then homogenated using a VWR VDI 12 Adaptable Homogenizer, on ice for 1 minute, and the sample was then clarified by centrifugation at 6,000 g for 5 minutes. The supernatant of this homogenated fraction was then used for FAAH hydrolysis assays. […] Gel densitometry was performed and the % FAAH extracted in each successive lysis conditions was determined according to standard procedures.
(§2) The following hydrolysis experiments were performed using COS-7 cells containing overexpressed FAAH-1 or FAAH-2. […] Briefly, the hydrolysis experiments were carried out in Eppendorf tubes using procedures similar to the one described above. […] At time=0, 1, and 3 h, the protein was precipitated with acetonitrile.

For data set [4], the target named is T3, FAAH-2 (Homo sapiens, UniProt Q6GMR7).
T3 construct: expressed in transfected cells; host or cells: COS-7
T3 sequence (Q6GMR7 1-532): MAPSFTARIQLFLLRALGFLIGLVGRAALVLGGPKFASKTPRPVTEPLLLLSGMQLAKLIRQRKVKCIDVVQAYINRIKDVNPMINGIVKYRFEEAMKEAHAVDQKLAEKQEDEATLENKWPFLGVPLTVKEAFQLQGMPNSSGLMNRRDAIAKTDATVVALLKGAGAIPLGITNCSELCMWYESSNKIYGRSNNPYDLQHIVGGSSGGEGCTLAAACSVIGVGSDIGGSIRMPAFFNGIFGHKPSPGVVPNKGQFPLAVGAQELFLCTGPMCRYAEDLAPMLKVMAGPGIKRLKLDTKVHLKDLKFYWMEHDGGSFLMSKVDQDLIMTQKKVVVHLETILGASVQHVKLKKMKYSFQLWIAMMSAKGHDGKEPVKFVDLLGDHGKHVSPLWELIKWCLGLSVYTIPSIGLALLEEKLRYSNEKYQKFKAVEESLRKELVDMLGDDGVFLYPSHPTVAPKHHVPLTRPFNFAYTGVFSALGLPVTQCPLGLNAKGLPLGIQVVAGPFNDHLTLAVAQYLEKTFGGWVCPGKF
Put plainly: Hydrolysis in homogenate of COS-7 cells overexpressed with FAAH-2. To be noted: 5 μM inhibitor. It counts as biochemical. How it is done:
as §1, §2

Data set [5] can be described thus: Sprague Dawley rat brain homogenate promoted cleavage of a linked bioactive, with and without FAAH inhibitor URB597. Format: in vitro ADME. The following applies: FIG. 1; 5 μM inhibitor. The method, then: The purpose of this assay was to measure the ability of Sprague Dawley rat brain homogenate to hydrolyze a linked bioactive in the presence of fatty acid amide hydrolase inhibitor URB597 (obtained from Cayman Chemical, cat #10046. Brains were harvested from male Sprague Dawley rats and were homogenized 1:4 (grams:mL) in 20 mM 4-(2-hydroxyethyl)-1-piperazineethanesulfonic acid, pH 7.0. Total protein in the rat brain homogenate was determined by a Bradford protein assay.
Linked bioactive was dissolved in methanol at 50 mM. Hydrolysis reactions were conducted with 500 μM of compound in a reaction buffer of 50 mM Hcpcs, 1 mM EDTA, 0.1% Triton X100, pH 8.0, and 1 mg/mL total protein from rat brain homogenate. Reactions were incubated at 37° C. The total reaction volume was 500 μL. Reactions were quenched by transferring 30 μL of reaction into 200 μL of acetonitrile containing 100 ng/mL of internal standard compound, after 0 hours, 1 hour, 2 hours, and 3 hours. […]
Generally, levels of parent linked bioactive and hydrolysis products were measured using an Agilent 1260 HPLC and an Agilent 6410 triple quadrapole mass spectrometer with an electrospray source and using multiple reaction monitoring and relevant mass/charge transitions. […] Injection volumes and flow rates were determined for each specific parent linked bioactive and relative hydrolysis products. […]

Data set [6] has as its system IL-1β. Put plainly: IL-1β transcript levels in LPS-stimulated RAW264.7 macrophages. The following applies: Mus musculus; RAW264.7, LPS 100 ng/ml; linked bioactive. It counts as cell-based. How it is done:
RAW264.7 macrophages were seeded at a density of 100,000 cells/well in a 96-well plate in DMEM supplemented with 10% FBS and penicillin:streptomycin. 16 hours later, medium was aspirated and replaced with 90 μL/well of serum-free DMEM. Linked bioactives were brought up in 100% ethanol to a concentration of 100 mM and then diluted 1:100 in 100% FBS for a stock solution consisting of 1 mM compound and 1% ethanol. These stock solutions were then diluted 1:10 in FBS supplemented with 1% ethanol to generate a 100 μM of the linked bioactives. 10 μL was then added to the RAW246.7 cells to generate final concentrations 10 μM of the linked bioactives or 10 μM each bioactive, along with vehicle only control. The linked bioactives were allowed to pre-incubate for 2 hours before stimulation of 100 ng/ml LPS (10 μL of 1 μg/ml LPS was added to each well). Following 3 hours of LPS stimulation, cells were washed once in 1×PBS, aspirated dry, and flash frozen in liquid nitrogen. RNA was then isolated and converted to cDNA using the Cells to cDNA kit (AMBION®) according to the manufacturer's protocol. IL-1β transcript levels were then measured using Taqman primer/probe assay sets (APPLIED BIOSYSTEMS®), normalized to GAPDH using the deltaCt method, and the data expressed relative to vehicle only control.

The IC50 is the concentration at which inhibition is half-maximal. On to `CC/C=C\C/C=C\C/C=C\C/C=C\C/C=C\C/C=C\CCC(=O)Nc1ccc(O)c(C(=O)O)c1` [II-1, 5-(4Z,7Z,10Z,13Z,16Z,19Z)-docosa-4,7,10,13,16,19-hexaenamido-2-hydroxybenzoic acid], for which the IC50 in data set [1] was 40 to 50 µM. For the same molecule, the “hydrolysis using human recombinant MAG-lipase (remaining compound)” value in data set [2] is “time-dependent hydrolysis”.

`NC(=O)c1cccc(-c2cccc(OC(=O)NC3CCCCC3)c2)c1` [URB597]: in data set [3] (FIG. 9A), the “effect of inhibitor on rate of hydrolysis of compound I-1, FAAH-1” value is given as “significantly reduced”. The “effect of inhibitor on rate of formation of DHA from compound I-1, FAAH-1” value in data set [3] (FIG. 9C) was “significantly inhibited”. The “effect of inhibitor on hydrolysis of compound I-1, FAAH-2” value in data set [4] (FIG. 9B) was “significantly reduced”. Moreover, the “effect of inhibitor on formation of DHA from compound I-1, FAAH-2” value in data set [4] (FIG. 9D) is “more effective in reducing the formation of DHA”. In data set [5], the “effect of FAAH inhibitor on hydrolysis of the linked bioactive by rat brain homogenate” value is reported as “essentially eliminated”.

For `CC/C=C\C/C=C\C/C=C\C/C=C\C/C=C\C/C=C\CCC(=O)N[C@@H](C)C(=O)O[C@H](C)[C@H](NC(=O)CC/C=C\C/C=C\C/C=C\C/C=C\C/C=C\C/C=C\CC)C(=O)OC` [VI-2, (2S,3R)-2-((4Z,7Z,10Z,13Z,16Z,19Z)-docosa-4,7,10,13,16,19-hexaenoylamino)-3-[(S)-2-((4Z,7Z,10Z,13Z,16Z,19Z)-docosa-4,7,10,13,16,19-hexaenoylamino)-propionyloxy]-butyric acid methyl ester], the IC50 in data set [6] turned out to be 10 µM.

Values taken from patent US20140315786A1, “USE OF INTRACELLULAR ENZYMES FOR THE RELEASE OF COVALENTLY LINKED BIOACTIVES” (Catabasis Pharmaceuticals, Inc., priority 2011, published 2014).
